# Measured values reported in patent publication US20110230659A1, “CYCLOBUTYL PURINE DERIVATIVE, ANGIOGENESIS PROMOTING AGENT, LUMEN FORMATION PROMOTING AGENT, NEUROCYTE GROWTH PROMOTING AGENT, AND DRUG” (NATIONAL UNIVERSITY CORPORATION KAGAWA UNIVERSITY, priority 2008, published 2011).
# System: rat adrenal medulla-derived cell line PC12
# Test: Differentiation of PC12 cells, AChE activity (Ellman's method)
# Assay type: cell-based
# Details: 2-Cl—C.OXT-A 50 μmol/l and 100 μmol/l, sixth day of culture
# Experimental: Three samples were prepared by adding additives shown in Table 5 below to PBS so as to achieve predetermined concentrations. Also, an evaluation medium was prepared by adding each sample or PBS to DMEM (no serum) so that its concentration became 10 v/v %. Furthermore, as a control medium, a medium containing only DMEM (no serum) was prepared. The PC12 cells were suspended at a density of 5×10^4 cells/ml in DMEM to which 5 v/v % cow serum and 10 v/v % horse serum had been added. Thus, a cell suspension was prepared. 3 ml of the cell suspension was inoculated into a 6 petri dish. […] On the sixth day of the culture, the cells were photographed under a microscope, and the AChE activity was measured according to the Ellman's method (Ellman, G. L., et al., Biochem. Pharmacol., 7, pp. 88-95, (1961)). Specifically, the AChE activity was measured in the following manner. […] The sample solution, 75 μl of 10 mmol/l DTNB, and 3.0 ml of 0.1 mol/l phosphate buffer solution (pH 8.0) were added to a […] for absorbance measurement, and finally, 50 μl of 100 mmol/l acetylthiocholine was added to cause a reaction. The absorbance of the reaction solution at 412 nm was measured for 5 minutes from immediately after the addition of the ace tylthiocholine. From the thus-measured absorbances, the amount of increase in absorbance (C) per minute was determined. […]
structure (smiles),measurement,value
"Nc1nc(Cl)nc2c1ncn2C1CC(CO)C1CO (stereo not drawn) [2-Cl—C.OXT-A, 6-amino-2-chloro-9-[trans-trans-2,3-bis(hydroxymethyl)cyclobutyl]purine]",AChE enzyme activity (relative value),increased
